Results on three compounds are retold here after patent publication US20090162315A1 (priority 2004, published 2009).

Where “and” joins values, the source holds several entries; their conditions need not be identical. Equal entries are not always repeated.

Experiment [1] concerns T84 human colon-carcinoma cells. Type of experiment: cell-based.
Experiment [2] shares this test system. The format is cell-based. The source holds these as a separate data set.
Experiment [3] shares this test system. The format is cell-based. This is another data set of the same source.
In another experiment the test system is patients with MPE. To be noted: in vivo; cited from earlier work.

Regarding `N.N.[Cl][Pt][Cl]` [Cisplatin, cis-diaminodichloroplatinum], the “^51Cr-EDTA flux (nml · h · cm^2)” value in experiment [1] stood at 2.8 nml · h · cm^2. In addition, in experiment [2], the “Δ Isc to CCh (μA/cm2)” value stood at 20 μA/cm2 and the “Δ Isc to Fsk (% of control)” value was 90 % of control. In experiment [3], the “TER (Ω/cm^2)” value was 800 Ω/cm^2 and 750 Ω/cm^2.
With Staphylococcal enterotoxin B [SEB], in experiment [2], the “Δ Isc to CCh (μA/cm2)” value turned out to be 23 μA/cm2 and the “Δ Isc to Fsk (% of control)” value was 95 % of control.
Turning to bleomycin, the “Response rate in MPE” value with patients with MPE is 50%.
